This is an account of results in US12312379B2, “Methods for producing cyclic compounds comprising N-substituted amino acid residues” (Chugai Seiyaku Kabushiki Kaisha, priority 2021, dated 2025).

≈ marks a conversion by molar mass, not a printed value. Like-named read-outs stand apart in the source and are kept apart here.

For series [1] the following is noted: cited from earlier work.
The conditions of series [2]: water/octanol; literature or database values; cited from earlier work.
For series [3] the following is noted: Merck Index 14th Edition; Org. Process Res. Dev. 2007 for 2-MeTHF; cited from earlier work.
The nature of the next series: Amount of acetone by GC. It is filed as physicochemical. Particulars: wet crystals. The protocol: The conditions for analyzing the amount of acetone by GC are shown below. • Instrument: GC-2010 (manufactured by SHIMADZU CORPORATION) • Column: DB-624 (Agilent), 0.530 mm ID×30 m, 3.00 μm • Column temperature: 50° C. (5 min)→10° C./min→90° C. (0 min)→50° C./min→240° C. (5 min) • Injector temperature: 230° C. • Detector temperature: 250° C. • Split ratio: 20/1 • Flow rate: 30 cm/sec

The nature of series [4]: Water content by Karl Fischer titration (CA-200). As to conditions: wet crystals. It is filed as physicochemical. The text has this: The conditions for analyzing the water content by Karl Fischer titration method are shown below. • Instrument: CA-200 (manufactured by Nittoseiko Analytech Co., Ltd.) • Anolyte: Aquamicron AKX • Catholyte: Aquamicron CXU
Series [5] can be described thus: Water content by Karl Fischer titration (CA-310). In kind it is physicochemical. As to conditions: after acclimatization of the sample to laboratory environment. On the procedure: The water content of the hydrate crystals (Form C) of Compound 1 prepared in Example 26 was measured by Karl Fischer titration method. After acclimatization of the sample to laboratory environment, the measurement was carried out using CA-310 (manufactured by Nittoseiko Analytech).

The nature of series [6]: Dynamic water vapor adsorption (DVS Intrinsic). In kind it is physicochemical. As to conditions: 25° C., relative humidity range of 0% to 95%, relative to the weight when the relative humidity is 0%. On the procedure:
The dynamic water vapor adsorption properties of the hydrate crystals (Form C) of Compound 1 prepared in Example 26 were measured by the following method. The results are shown in FIG. 10. • Measurement apparatus: DVS Intrinsic (manufactured by Surface Measurement Systems) • Temperature: 25° C. • Relative humidity (%) measurement points: • Cycle 1: 0, 10, 20, 30, 40, 50, 60, 70, 80, 90, 95, 90, 80, 70, 60, 50, 40, 30, 20, 10, 0(%); • Cycle 2: 10, 20, 30, 40, 50, 60, 70, 80, 90, 95, 90, 80, 70, 60, 50, 40, 30, 20, 10, 0(%) • Threshold: 0.001 dm/dt (%/min) • Minimum adsorption time: 10 min • Maximum adsorption time: 1440 min

Series [7] can be described thus: Powder X-ray diffraction at different humidities. It is filed as physicochemical. Particulars: 35.0 °C, relative humidity of 75% to 0%, versus Form C obtained in Example 25. The protocol:
Powder X-ray diffraction of the hydrate crystals (Form C) of Compound 1 prepared in Example 26 was measured at different humidities by the following method. Measurement apparatus: SmartLab System, D/Tex Ultra detector, humidity generator HUM-SL (manufactured by Rigaku Corporation) • Anticathode: Cu • Tube voltage: 45 kV • Tube current: 200 mA • Scanning range: 5-30° • Scanning speed: 0.7°/min • Sampling width: 0.02° • Varying humidity conditions: […]

The mark [8] stands for this setting: Org. Process Res. Dev. 2007 / J. Mol. Catal. A Chem. 2010.

For `CC1CCCO1` (stereo not drawn) [Compound 2-MeTHF, 2-methyltetrahydrofuran], in series [1] (setting [8]), the “amount that dissolves in 1 L of water” value is given as 140 g. Besides, in series [1] (room temperature (e.g. 25° C.)), the water solubility was 150 mg/mL (≈ 1740 mM). Besides, in series [2], the “log Kow values or predicted log Kow values” was 1.35. Also, the “miscibility / solubility in water (in words)” value (“miscibility / solubility” for short) in series [3] is recorded as “not miscible with water”.
With `C[S+](C)[O-]` [DMSO, dimethyl sulfoxide], the water solubility in series [1] (ChemIDplus Advanced (NIH)) is 1000 mg/mL (≈ 12800 mM). The “log Kow values or predicted log Kow values” in series [2] is −0.31. Besides, in series [3], the “miscibility / solubility” value is reported as “soluble in water”.
For the molecule `CC#N` [acetonitrile], the “log Kow values or predicted log Kow values” in series [2] is −0.34. Besides, the “miscibility / solubility” value in series [3] is “miscible with water”.
As for `COc1ccccc1` [anisole], the “log Kow values or predicted log Kow values” in series [2] is 2.11.
`COC(=O)OC` [dimethyl carbonate]: the “amount that dissolves in 1 L of water” value in series [1] (Merck Index 14th Edition) and in series [1] (setting [8]) was 139 g each time. For the same molecule, the “log Kow values or predicted log Kow values” in series [2] was 0.23.
Consider `CCOC(C)=O` [ethyl acetate], for which the “amount that dissolves in 1 L of water” value in series [1] (Merck Index 14th Edition) was 100 g. Further, in series [2], the “log Kow values or predicted log Kow values” was 0.73.
`CCCCCCC` [heptane]: in series [2], the “log Kow values or predicted log Kow values” was 4.66. Moreover, the “miscibility / solubility” value in series [3] is on record as “insoluble in water”.
For `CC(=O)OC(C)C` [isopropyl acetate], the “amount that dissolves in 1 L of water” value in series [1] (Merck Index 14th Edition) is reported as 43 g. Also, the “log Kow values or predicted log Kow values” in series [2] is reported as 1.02.
“(5S,8S,11S,15S,18S,23aS,29S,35S,37aS)-8-((S)-sec-butyl)-18-cyclopentyl-29-(3,5-difluoro-4-(trifluoromethyl)phenethyl)-36-ethyl-11-isobutyl-N,N,5,6,12,16,19,33-octamethyl-35-(4-methylbenzyl)-4,7,10,13,17,20,23,28,31,34,37-undecaoxotetratriacontahydro-2H,4H-spiro[azeto[2,1-u]pyrrolo[2,1-i][1,4,7,10,13,16,19,22,25,28,31]undecaazacyclotetratriacontin-21,1′-cyclopentane]-15-carboxamide” gave an acetone content in the series “Amount of acetone by GC” of 3.7%. For the same molecule, the water content in series [4] came to 17.5%.
Molecule “(5S,8S,11S,15S,18S,23aS,29S,35S,37aS)-8-((S)-sec-butyl)-18-cyclopentyl-29-(3,5-difluoro-4-(trifluoromethyl)phenethyl)-36-ethyl-11-isobutyl-N,N,5,6,12,16,19,33-octamethyl-35-(4-methylbenzyl)-4,7,10,13,17,20,23,28,31,34,37-undecaoxotetratriacontahydro-2H,4H-spiro[azeto[2,1-u]pyrrolo[2,1-i][1,4,7,10,13,16,19,22,25,28,31]undecaazacyclotetratriacontin-21,1′-cyclopentane]-15-carboxamide [hydrate crystals (Form C) of Compound 1]” showed a water content in series [5] of 6.50 wt %. In series [6], the “weight change as the hydration number changes” value is on record as at most 3.3 % weight. Also, in series [7], the “shift in 2θ values” is listed as at most 0.2 °.
